Data taken from PubChem BioAssay (NCI).
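Briefly, cells in 96-well plates were exposed to five compound concentrations for 48 h, and endpoints were estimated by linear interpolation. GI50: concentration for 50% inhibition of growth. TGI: concentration producing complete growth inhibition.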

Legend:
Assay in all cases: DTP human tumour cell line panel, 48 h
CCRF-CEM leukemia = tested on: CCRF-CEM leukemia
COLO 205 colon = tested on: COLO 205 colon
DU-145 prostate = tested on: DU-145 prostate
HOP-92 NSCLC = tested on: HOP-92 NSCLC
MOLT-4 leukemia = tested on: MOLT-4 leukemia
OVCAR-5 ovarian = tested on: OVCAR-5 ovarian
SF-295 CNS = tested on: SF-295 CNS
SN12C renal = tested on: SN12C renal
TK-10 renal = tested on: TK-10 renal
UACC-257 melanoma = tested on: UACC-257 melanoma

## CN(C)CCCN=c1cc2c(=O)n(CCCN(C)C)c(=O)c3c(NCCCN(C)C)cc4c(O)n(CCCN(C)C)c(=O)c1c4c3-2
CCRF-CEM leukemia
  GI50: 5.84 µM
  TGI: 54.8 µM
COLO 205 colon
  GI50: 1.03 µM
  TGI: 2.62 µM
DU-145 prostate
  GI50: 2.5 µM
  TGI: 9.51 µM
HOP-92 NSCLC
  GI50: 1.81 µM
  TGI: 14.2 µM
MOLT-4 leukemia
  GI50: 7.11 µM
  TGI: 98.8 µM
OVCAR-5 ovarian
  GI50: 1.12 µM
  TGI: 4.09 µM
SF-295 CNS
  GI50: 1.1 µM
  TGI: 9 µM
SN12C renal
  GI50: 1.73 µM
  TGI: 30.9 µM
TK-10 renal
  GI50: 1.55 µM
  TGI: 5.95 µM
UACC-257 melanoma
  GI50: 2.19 µM
  TGI: 7.35 µM

## ClC1(c2ccccc2)c2ccc(Br)cc2-c2cc(Br)ccc21
CCRF-CEM leukemia
  TGI: > 100 µM
COLO 205 colon
  TGI: 33.7 µM
DU-145 prostate
  TGI: 48.1 µM
HOP-92 NSCLC
  TGI: 29.2 µM
MOLT-4 leukemia
  TGI: > 100 µM
OVCAR-5 ovarian
  TGI: 31.4 µM
SF-295 CNS
  TGI: 31.8 µM
SN12C renal
  TGI: 34.9 µM
TK-10 renal
  TGI: 34.8 µM
UACC-257 melanoma
  TGI: 34.9 µM

## N/C(=N\c1nc2ccccc2s1)NC(=O)Nc1ccccc1Cl
CCRF-CEM leukemia
  GI50: 0.11 µM
  TGI: > 42.8 µM
COLO 205 colon
  GI50: 0.151 µM
  TGI: 2.13 µM
DU-145 prostate
  GI50: 0.259 µM
  TGI: 9.28 µM
HOP-92 NSCLC
  GI50: 0.356 µM
  TGI: 56.4 µM
MOLT-4 leukemia
  GI50: 0.167 µM
  TGI: > 56.6 µM
OVCAR-5 ovarian
  GI50: 0.379 µM
  TGI: 26.8 µM
SF-295 CNS
  GI50: 0.106 µM
  TGI: 1.74 µM
SN12C renal
  GI50: 0.916 µM
  TGI: > 50.1 µM
TK-10 renal
  GI50: 4.11 µM
  TGI: 18.7 µM
UACC-257 melanoma
  GI50: 18.6 µM
  TGI: > 100 µM

## CC(C)(C)N1CC(OC(N)=O)C1
CCRF-CEM leukemia
  GI50: > 100 µM
  TGI: > 100 µM
COLO 205 colon
  GI50: > 100 µM
  TGI: > 100 µM
DU-145 prostate
  GI50: > 100 µM
  TGI: > 100 µM
HOP-92 NSCLC
  GI50: > 100 µM
  TGI: > 100 µM
MOLT-4 leukemia
  GI50: > 100 µM
  TGI: > 100 µM
OVCAR-5 ovarian
  GI50: > 100 µM
  TGI: > 100 µM
SF-295 CNS
  GI50: > 100 µM
  TGI: > 100 µM
SN12C renal
  GI50: > 100 µM
  TGI: > 100 µM
TK-10 renal
  GI50: > 100 µM
  TGI: > 100 µM
UACC-257 melanoma
  GI50: > 100 µM
  TGI: > 100 µM

## CNC(=O)c1cncc(/C=C/c2c(C)cccc2C)c1
CCRF-CEM leukemia
  GI50: > 25 µM
  TGI: > 25 µM
COLO 205 colon
  GI50: > 22.6 µM
  TGI: > 25 µM
DU-145 prostate
  GI50: > 25 µM
  TGI: > 25 µM
HOP-92 NSCLC
  GI50: 3.34 µM
  TGI: 22.9 µM
MOLT-4 leukemia
  GI50: > 25 µM
  TGI: > 25 µM
OVCAR-5 ovarian
  GI50: > 25 µM
  TGI: > 25 µM
SF-295 CNS
  GI50: > 25 µM
  TGI: > 25 µM
SN12C renal
  GI50: 20.6 µM
  TGI: > 25 µM
TK-10 renal
  GI50: > 20.9 µM
  TGI: > 25 µM
UACC-257 melanoma
  GI50: > 25 µM
  TGI: > 25 µM

## COc1ccccc1N1CCN(C(=O)c2ccc(NS(=O)(=O)c3cccc4cccnc34)cc2)CC1
CCRF-CEM leukemia
  GI50: > 100 µM
  TGI: > 100 µM
COLO 205 colon
  GI50: > 100 µM
  TGI: > 100 µM
DU-145 prostate
  GI50: > 100 µM
  TGI: > 100 µM
HOP-92 NSCLC
  GI50: > 100 µM
  TGI: > 100 µM
MOLT-4 leukemia
  GI50: > 100 µM
  TGI: > 100 µM
OVCAR-5 ovarian
  GI50: > 100 µM
  TGI: > 100 µM
SF-295 CNS
  GI50: > 39 µM
  TGI: > 100 µM
SN12C renal
  GI50: > 100 µM
  TGI: > 100 µM
TK-10 renal
  GI50: > 64.1 µM
  TGI: > 100 µM
UACC-257 melanoma
  GI50: > 100 µM
  TGI: > 100 µM

## O=C(O[C@H]1CN[C@H](C#Cc2cc3ncnc(Nc4ccc(OCc5cccc(F)c5)c(Cl)c4)c3s2)C1)N1CCOCC1
CCRF-CEM leukemia
  GI50: 2.2 µM
  TGI: > 22 µM
COLO 205 colon
  GI50: 5.32 µM
  TGI: 11.1 µM
DU-145 prostate
  GI50: 5.96 µM
  TGI: > 25 µM
HOP-92 NSCLC
  GI50: 1.45 µM
  TGI: 9.96 µM
MOLT-4 leukemia
  GI50: 6 µM
  TGI: 23.2 µM
OVCAR-5 ovarian
  GI50: 10.5 µM
  TGI: > 25 µM
SF-295 CNS
  GI50: 9 µM
  TGI: > 25 µM
SN12C renal
  GI50: 5.66 µM
  TGI: > 25 µM
TK-10 renal
  GI50: 0.17 µM
  TGI: 8.41 µM
UACC-257 melanoma
  GI50: > 19.1 µM
  TGI: > 25 µM

## CN(C1=NS(=O)(=O)N=C(N(C)c2ccccc2)O1)c1ccccc1
CCRF-CEM leukemia
  TGI: > 100 µM
COLO 205 colon
  TGI: 46 µM
DU-145 prostate
  TGI: 61.7 µM
HOP-92 NSCLC
  TGI: 54.6 µM
MOLT-4 leukemia
  TGI: > 100 µM
OVCAR-5 ovarian
  TGI: 47 µM
SF-295 CNS
  TGI: 57.7 µM
SN12C renal
  TGI: 41.2 µM
TK-10 renal
  TGI: 80.2 µM
UACC-257 melanoma
  TGI: 57.4 µM

## CCC1CCCCN1C(=S)N/N=C(\C)c1ccccn1 (stereo not given)
CCRF-CEM leukemia
  GI50: 0.0414 µM
  TGI: > 100 µM
COLO 205 colon
  GI50: 0.0227 µM
  TGI: 0.379 µM
DU-145 prostate
  GI50: 0.292 µM
  TGI: 3.75 µM
HOP-92 NSCLC
  GI50: 0.175 µM
  TGI: 1.85 µM
MOLT-4 leukemia
  GI50: 0.0982 µM
  TGI: > 20.7 µM
OVCAR-5 ovarian
  GI50: 0.416 µM
  TGI: 4.88 µM
SF-295 CNS
  GI50: 0.0296 µM
  TGI: 2.81 µM
SN12C renal
  GI50: 0.114 µM
  TGI: 3.87 µM
TK-10 renal
  GI50: 0.191 µM
  TGI: 2.56 µM
UACC-257 melanoma
  GI50: < 0.0215 µM
  TGI: 1.68 µM

## CCn1cc(C(=O)N/N=C/c2cccc(F)c2)c(=O)c2cc(F)c(N3CCNC(C)C3)c(F)c21 (stereo not given)
CCRF-CEM leukemia
  GI50: 1.55 µM
  TGI: 3.39 µM
COLO 205 colon
  GI50: 1.71 µM
  TGI: 3.25 µM
DU-145 prostate
  GI50: 1.67 µM
  TGI: 3.05 µM
HOP-92 NSCLC
  GI50: 1.12 µM
  TGI: 2.42 µM
MOLT-4 leukemia
  GI50: 1.75 µM
  TGI: 3.4 µM
OVCAR-5 ovarian
  GI50: 1.7 µM
  TGI: 3.1 µM
SF-295 CNS
  GI50: 1.8 µM
  TGI: 3.29 µM
SN12C renal
  GI50: 1.62 µM
  TGI: 3.11 µM
TK-10 renal
  GI50: 1.73 µM
  TGI: 3.18 µM
UACC-257 melanoma
  GI50: 1.67 µM
  TGI: 3.17 µM

## COc1cc(C)[nH]c(=O)c1CN1CCc2c(Cl)cc([C@H](OC)C3COC3)c(Cl)c2C1=O
CCRF-CEM leukemia
  GI50: > 100 µM
  TGI: > 100 µM
COLO 205 colon
  GI50: > 100 µM
  TGI: > 100 µM
DU-145 prostate
  GI50: > 100 µM
  TGI: > 100 µM
HOP-92 NSCLC
  GI50: > 100 µM
  TGI: > 100 µM
MOLT-4 leukemia
  GI50: > 100 µM
  TGI: > 100 µM
OVCAR-5 ovarian
  GI50: > 100 µM
  TGI: > 100 µM
SF-295 CNS
  GI50: > 100 µM
  TGI: > 100 µM
SN12C renal
  GI50: > 100 µM
  TGI: > 100 µM
TK-10 renal
  GI50: > 100 µM
  TGI: > 100 µM
UACC-257 melanoma
  GI50: > 100 µM
  TGI: > 100 µM

## O=C1CC2C(=O)C1C(C(=O)O)C2C(=O)O (stereo not given)
CCRF-CEM leukemia
  TGI: > 100 µM
COLO 205 colon
  TGI: > 100 µM
DU-145 prostate
  TGI: > 100 µM
HOP-92 NSCLC
  TGI: > 100 µM
MOLT-4 leukemia
  TGI: > 100 µM
OVCAR-5 ovarian
  TGI: > 100 µM
SF-295 CNS
  TGI: > 100 µM
SN12C renal
  TGI: > 100 µM
TK-10 renal
  TGI: > 100 µM
UACC-257 melanoma
  TGI: > 100 µM

## C=C1SC(=Nc2ccccc2Cl)N(C(=O)c2sc3ccccc3c2Cl)C1(C)C
CCRF-CEM leukemia
  GI50: 3.93 µM
  TGI: > 25.3 µM
COLO 205 colon
  GI50: 3.49 µM
  TGI: 11 µM
DU-145 prostate
  GI50: 11.3 µM
  TGI: > 100 µM
HOP-92 NSCLC
  GI50: 3.47 µM
  TGI: > 22.8 µM
MOLT-4 leukemia
  GI50: 3.47 µM
  TGI: > 25.4 µM
OVCAR-5 ovarian
  GI50: 10.9 µM
  TGI: > 100 µM
SF-295 CNS
  GI50: 2.07 µM
  TGI: 10.7 µM
SN12C renal
  GI50: 12.6 µM
  TGI: > 100 µM
TK-10 renal
  GI50: 5.57 µM
  TGI: 37.1 µM
UACC-257 melanoma
  GI50: 29.2 µM
  TGI: > 100 µM
